Experimental data as given in PMC10096344 (Molecules, 2023).

How the values were obtained:
[1] = tested on: P. aeruginosa (ATCC27853) biofilm; assay: Bacterial biofilm formation (FITC staining, crystal violet staining); type: cell-based, Pseudomonas aeruginosa; details: with 10 μg/mL LP4C
Experimental: The bacterial biofilm growth and measurement was performed according to our previously reported method. Briefly, P. aeruginosa (ATCC27853) was cultured in the tube with nutrient broth containing 2% (w/v) glucose, shaken at 220 rpm for 12 h at 37 °C. The suspension was diluted to 1 × 10^6 CFU/mL and added to 96-well plates, the bacteria was cultured for 24 h at 37 °C for biofilm growth and the planktonic bacterial of each well was removed by PBS rinsing three times. To observe the biofilm formation, the fluorescein isothiocyanate (FITC) was added into the plates and incubated for 2 h at 37 °C; the labeled biofilm was then washed by PBS and visualized under the fluorescence microscopy (Olympus CKX53, Tokyo, Japan). The measurement of biofilm was performed according to the following procedure: the mature biofilm was fixed with 150 μL methanol and left to air dry, then stained with 150 μL of 1% (w/v) crystal violet solution for 15 min at room temperature. The plate was rinsed with PBS three times and 150 μL of glacial acetic acid was added to each well; the optical density was measured at 630 nm optical density using a microplate reader (Bio-Tek ELX800, Berten, USA).

[2] = tested on: P. aeruginosa (ATCC27853); assay: Anti-bacterial activity, inhibition zone diameter on agar; type: cell-based, Pseudomonas aeruginosa; details: for growth inhibition / bactericidal activity (inhibition zone): reference antibiotic 10 μg/mL
Experimental: P. aeruginosa (ATCC27853) was cultured in 3 mL LB culture medium, shaken at 220 rpm for 12 h at 37 °C and diluted to 1 × 10^6 CFU/mL. The culture disk was coated with 1% agar, and 100 μL bacterial suspension was added to the agar in the disk evenly. […] LP4C or reference antibiotics were then added in each hole. The disk was cultured for 12–16 h at 37 °C; the result was then observed and the inhibition zone diameter was measured.

[3] = tested on: P. aeruginosa PAO1 strain; set-up: method as in PMID 21852522; details: cited from earlier work
[4] = supplementation 1, 10 and 100 μM

Row | SMILES | reversal of biofilm formation impaired by LP4C [1, 4] | growth inhibition / bactericidal activity (inhibition zone) [2] | other results
1 | O=c1ccn([C@@H]2O[C@H](CO[P@@](=O)(O)O[P@@](=O)(O)OP(=O)(O)O)[C@@H](O)[C@H]2O)c(=O)[nH]1 (stereo in doubt) [UTP, uridine triphosphate, reference compound] | could reverse the biofilm formation ability impaired by 10 μg/mL LP4C | – | –
2 | O=c1ccn([C@@H]2O[C@H](COP(=O)(O)O)[C@@H](O)[C@H]2O)c(=O)[nH]1 [UMP, uridine monophosphate, reference compound] | could reverse the biofilm formation ability impaired by 10 μg/mL LP4C | – | –
3 | CC(C)(O/N=C(\C(=O)N[C@@H]1C(=O)N2C(C(=O)[O-])=C(C[n+]3ccccc3)CS[C@H]12)c1csc(N)n1)C(=O)O [ceftazidime] | – | no bactericidal activity | –
4 | C[C@@H](O)[C@H]1C(=O)N2C(C(=O)O)=C(SCCN=CN)C[C@H]12 [imipenem] | – | could inhibit the growth of P. aeruginosa obviously | zone of inhibition at 10 µg/mL ([2]; Pseudomonas aeruginosa, ATCC27853, 10 μg/mL, value printed in Figure 1A): 29.4 mm
5 | CC(C)=CC[C@@H](O)C1=CC(=O)c2c(O)ccc(O)c2C1=O [shikonin] | – | – | concentration that inhibits biofilm formation [3]: 200 µM
6 | O=c1cc[nH]c(=O)[nH]1 [uracil, reference compound] | – | – | reversal of biofilm formation impaired by LP4C ([1]; supplementation 10 and 100 μM): could reverse the biofilm formation ability impaired by 10 μg/mL LP4C
